# Paper PMC7011920, “Synthesis and biological evaluation of stilbene derivatives coupled to NO donors as potential antidiabetic agents” (Journal of Enzyme Inhibition and Medicinal Chemistry, 2018)
# How the values were obtained:
# α-Glucosidase = biological target: T1, α-Glucosidase (Saccharomyces cerevisiae, UniProt P53341); assay: biochemical; details: read-out: IC50 value, α-Glucosidase inhibitory activity
# T1 construct: purchased Sigma Aldrich G0660-750UN
# Experimental: α-Glucosidases, enzymes anchored in the brush border of the small intestine, are responsible for catalysing the hydrolysis of carbohydrates.
# α-Glucosidase (G0660-750UN, Sigma Aldrich, St. Louis, MO) and 4-nitrophenyl α-D-glucopyranoside (PNPG, Macklin) were dissolved in phosphate buffer (pH 6.8, 100 mM), and the test compounds were dissolved in DMSO solution. The experiment was divided into blank group, control group, sample blank group and sample group. The reagents were loaded in 96-well plates at the dose of the table (Table 3). The solution was bathed in 37 °C water for 10 min, after the end, enzyme solution was added. After reaction at 37 °C for 20 min, 70 µL Na2CO3 solution ([…]) was added to stop the reaction. All experiments were run in triplicate. […] Since PNPG can produce glucose and p-nitrophenol (PNP) under the action of α-glucosidase, PNP has the greatest absorption at 405 nm. The absorbance was determined by the microplate reader, and the inhibition rate of α-glucosidase and the IC50 value of each sample were calculated according to the formula. Inhibition rate %={[(AC−AB)−(AS−ASB)]/(AC−AB)}×100% where AC is the absorbance of control group; AB is the absorbance of blank group; AS is the absorbance of sample group; ASB is the absorbance of sample blank group.
# [1] = tested on: AGEs (advanced glycation end products) formation; assay: In vitro inhibitory activity of AGEs formation (bovine serum albumin/glucose, fluorescence)
# Experimental: Advanced glycation end products are a group of complex and heterogeneous compounds, which are implicated in a number of biochemical abnormalities associated with diabetes[21]^,[22]. Therefore, the discovery of AGEs inhibitors would be beneficial to the prevention and treatment of diabetic or other pathogenic complications.
# To prepare the AGE reaction solution, 10 mg/ml of bovine serum albumin in 50 mM PBS (pH 7.4) was added to 0.2 M glucose, and 0.02% sodium azide was added to prevent bacterial growth. The reaction mixture (3 ml) was then mixed with various concentrations (0.5–1000 µg/ml) of the target compounds (1 ml) dissolved in DMSO. After incubating at 37 °C for 14 d, the fluorescence intensity of AGE was determined by a fluorospectrophotometer (PE, Cincinnati, OH) with excitation and emission wavelengths at 350 nm and 420 nm[30], respectively. All experiments were run in triplicate. Aminoguanidine hydrochloride was used as a reference compound. The inhibition rate of AGEs formation and the IC50 value of each sample were calculated according to the formula. Inhibition rate %={[(AC−AB)−(AS−ASB)]/(AC−AB)}×100% where AC is the absorbance of control group (1.0 ml glucose +1.0 ml bovine serum albumin +1.0 ml sodium azide +1.0 ml DMSO); AB is the absorbance of blank group (1.0 ml PBS +1.0 ml bovine serum albumin +1.0 ml sodium azide +1.0 ml DMSO); AS is the absorbance of sample group (1.0 ml glucose +1.0 ml bovine serum albumin +1.0 ml sodium azide +1.0 ml target compound solution or aminoguanidine hydrochloride solution); ASB is the absorbance of sample blank group (1.0 ml PBS +1.0 ml bovine serum albumin +1.0 ml sodium azide +1.0 ml target compound solution or aminoguanidine hydrochloride solution).
# aldose reductase (ALR2) = biological target: T2, aldose reductase (ALR2) (Mus musculus, UniProt P45376); assay: In vitro ALR2 inhibitory activity (crude enzyme, NADPH decrease at 340 nm); format: biochemical, mice; details: read-out: IC50 value, ALR2 inhibitory activity
# T2 construct: After homogenisation and centrifugation, the crude ALR2 from mice was obtained; from tissue
# Experimental: The enzyme aldose reductase (ALR2) is a member of the aldo–keto reductase superfamily. The development and progression of chronic diabetic complications are confirmed to be quite related to the activation and/or over expression of ALR2[25]. Therefore, ALR2 inhibitors may play a critical role in preventing or treating these complications.
# After homogenisation and centrifugation, the crude ALR2 from mice was obtained. The inhibitory activity of the compounds on ALR2 was carried out using crude enzyme and different concentrations of the compounds (1–1000 µg/ml) in 200 mM PBS (pH 6.2) containing 0.10 mM NADPH. The reaction was initiated by addition of glyceraldehyde and the decrease in the optical density of NADPH at 340 nm was recorded for 3 min. All experiments were run in triplicate. IC50 of the compounds was calculated. The flavonoid quercetin was used as a reference in the ALR2 assay.
# [2] = Oral toxicity to mice (Lorke's method); details: both sexes, mouse, in vivo, Kunming mice, 14 days observation
# Experimental: With reference to Lorke’s method, Kunming mice were used as targets to estimate oral toxicity of each compound to mice. We select compounds 3c, 3e, and 7c at concentrations of 10, 100, and 1000 mg/kg to test their oral toxicity in the first phase, and 1600, 2900, and 5000 mg/kg at the second phase. […] No death and no appetite-suppressant effect were detected in the tested mice in 14 days. […].
# Experiments were performed on Kunming mice (male and female half, body weight range, 25–30 g). Mice were housed in a climate and light controlled room with a 12 h light/dark cycle. Twelve hours before experiments, food was withheld, but animals had free access to drinking water. The compounds were suspended in vehicle (Tween-80, 0.2% in saline). The concentrations were adjusted to orally administrate 0.2 ml/10 g of bw (body weight). Mice were treated in two phases. In the first, intragastric doses of 10, 100 and 1000 mg/kg of bw of compounds were administered. On the second, the doses were adjusted to 1600, 2900 and 5000 mg/kg of bw of compounds. In both phases, mice were observed daily in a period of 14 days for mortality, toxic effects and/or changes in behavioural pattern. At the end of the experiments, the mice were sacrificed in a CO2 chamber.
# T1 sequence (P53341 whole entry): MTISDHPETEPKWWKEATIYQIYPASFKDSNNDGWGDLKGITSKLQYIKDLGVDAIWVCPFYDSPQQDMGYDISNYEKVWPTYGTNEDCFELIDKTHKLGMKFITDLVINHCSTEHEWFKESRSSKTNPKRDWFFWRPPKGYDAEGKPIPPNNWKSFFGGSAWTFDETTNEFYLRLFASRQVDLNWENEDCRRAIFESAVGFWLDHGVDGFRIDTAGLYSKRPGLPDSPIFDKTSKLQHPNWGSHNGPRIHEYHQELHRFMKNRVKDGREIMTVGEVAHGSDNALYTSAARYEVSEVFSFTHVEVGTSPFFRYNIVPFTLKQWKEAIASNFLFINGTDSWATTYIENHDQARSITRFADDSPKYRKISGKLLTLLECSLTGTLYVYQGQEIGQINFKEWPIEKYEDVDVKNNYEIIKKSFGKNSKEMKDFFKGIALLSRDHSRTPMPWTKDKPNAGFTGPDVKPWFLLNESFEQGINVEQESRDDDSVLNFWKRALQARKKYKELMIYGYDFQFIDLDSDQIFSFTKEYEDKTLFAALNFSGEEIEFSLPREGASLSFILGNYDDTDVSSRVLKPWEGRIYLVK
smiles,measurement,setting,value
COc1cc(/C=C/c2ccc(OCCCCCCO[N+](=O)[O-])cc2)cc(OC)c1 [3c],IC50,α-Glucosidase,83.1 ± 16.2 µM
same,IC50,"[1]; 50% inhibition of fluorescence intensity of AGE relative to 0.1% DMSO, mean ± SD (n = 3)",1.49 ± 0.2 µM
same,AGEs formation inhibitory activity compared with positive reference AG,[1]; ratio to AG,over 100 folds
same,IC50,aldose reductase (ALR2),299 ± 22.6 µM
same,LD50 at 14 days,[2],> 5000 mg/kg
